Experiments:
[1] = molecular target: T1, Muscarinic acetylcholine receptor M5 (Homo sapiens, UniProt P08912); assay type: cell membranes, CHO-K1, Membrane; further: in other assays of this panel Not Active means under 50% inhibition at 10 µM
T1 sequence (P08912 whole entry): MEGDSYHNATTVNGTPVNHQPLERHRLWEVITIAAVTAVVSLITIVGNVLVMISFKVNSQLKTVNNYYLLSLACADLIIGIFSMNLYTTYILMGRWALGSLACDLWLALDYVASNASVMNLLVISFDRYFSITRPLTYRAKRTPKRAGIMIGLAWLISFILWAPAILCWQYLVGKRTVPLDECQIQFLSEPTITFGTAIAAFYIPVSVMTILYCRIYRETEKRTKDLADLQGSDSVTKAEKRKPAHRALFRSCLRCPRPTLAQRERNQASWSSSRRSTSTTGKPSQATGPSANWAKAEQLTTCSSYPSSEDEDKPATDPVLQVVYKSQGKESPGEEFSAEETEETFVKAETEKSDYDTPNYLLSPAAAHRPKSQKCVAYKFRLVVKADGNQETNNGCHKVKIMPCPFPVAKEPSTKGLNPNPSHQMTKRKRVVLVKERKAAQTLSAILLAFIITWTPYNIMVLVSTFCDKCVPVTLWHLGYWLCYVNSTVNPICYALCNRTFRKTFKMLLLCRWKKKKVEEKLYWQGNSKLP

Cytochrome P450 2A6 = molecular target: T2, Cytochrome P450 2A6 (Homo sapiens, UniProt P11509); conditions: bti-tn-5b1-4; further: in other assays of this panel Not Active means under 50% inhibition at 10 µM
T2 sequence (P11509 whole entry): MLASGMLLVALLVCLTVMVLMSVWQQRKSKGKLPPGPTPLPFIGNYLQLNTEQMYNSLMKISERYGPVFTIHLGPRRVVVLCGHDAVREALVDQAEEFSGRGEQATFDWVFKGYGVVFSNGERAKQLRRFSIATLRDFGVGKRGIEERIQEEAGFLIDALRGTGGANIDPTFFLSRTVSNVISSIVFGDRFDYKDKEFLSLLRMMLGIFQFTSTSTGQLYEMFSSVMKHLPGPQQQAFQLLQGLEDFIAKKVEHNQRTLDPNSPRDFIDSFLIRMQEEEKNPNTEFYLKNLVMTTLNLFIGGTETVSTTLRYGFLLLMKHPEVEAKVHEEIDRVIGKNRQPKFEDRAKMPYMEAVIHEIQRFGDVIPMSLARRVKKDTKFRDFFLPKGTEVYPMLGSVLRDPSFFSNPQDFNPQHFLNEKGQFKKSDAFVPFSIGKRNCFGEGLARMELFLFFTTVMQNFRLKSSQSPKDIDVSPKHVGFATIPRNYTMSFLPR

[2] = molecular target: Beta-3 adrenergic receptor (Homo sapiens, UniProt P13945); assay: DRUGMATRIX: Adrenergic beta3 radioligand binding (ligand: [125I] Cyanopindolol); assay type: cell membranes, Membrane; conditions: hek293; Not Active = under 50% inhibition at 10 µM
[3] = molecular target: Beta-1 adrenergic receptor (Homo sapiens, UniProt P08588); assay: DRUGMATRIX: Adrenergic beta1 radioligand binding (ligand: [125I] Cyanopindolol); assay type: cell membranes, CHO-K1, Membrane; conditions: cho-k1; Not Active = under 50% inhibition at 10 µM
Cannabinoid receptor 1 = Cannabinoid receptor 1 (Homo sapiens, UniProt P21554); assay type: cell membranes, Chem-1, Membrane; conditions: chem-1; further: in other assays of this panel Not Active means under 50% inhibition at 10 µM
Progesterone receptor = molecular target: T3, Progesterone receptor (Bos taurus, UniProt Q690N0); assay: DRUGMATRIX: Progesterone radioligand binding (ligand: [3H] R-5020); assay type: tissue-based, Uterus; conditions: Not Active = under 50% inhibition at 10 µM
T3 sequence (Q690N0 whole entry): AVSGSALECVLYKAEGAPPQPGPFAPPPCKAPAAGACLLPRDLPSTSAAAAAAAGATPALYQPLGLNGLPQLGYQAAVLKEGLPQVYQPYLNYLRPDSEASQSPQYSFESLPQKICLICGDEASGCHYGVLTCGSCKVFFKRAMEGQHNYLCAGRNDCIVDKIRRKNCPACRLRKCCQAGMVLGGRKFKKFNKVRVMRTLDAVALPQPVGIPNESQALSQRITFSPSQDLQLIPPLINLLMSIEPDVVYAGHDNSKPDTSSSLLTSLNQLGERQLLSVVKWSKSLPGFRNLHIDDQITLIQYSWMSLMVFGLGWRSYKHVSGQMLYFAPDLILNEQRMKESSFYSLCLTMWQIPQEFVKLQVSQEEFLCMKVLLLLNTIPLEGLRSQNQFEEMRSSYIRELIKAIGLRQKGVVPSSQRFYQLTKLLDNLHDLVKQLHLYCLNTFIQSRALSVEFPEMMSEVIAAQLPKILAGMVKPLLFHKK

[4] = molecular target: Mitogen-activated protein kinase 3 (Homo sapiens, UniProt P27361); assay: DRUGMATRIX: Protein Serine/Threonine Kinase, ERK1 enzyme inhibition (substrate: Myelin Basic Protein); design: species or system Escherichia coli; conditions: Not Active = under 50% inhibition at 10 µM
Thromboxane-A synthase = molecular target: T4, Thromboxane-A synthase (Homo sapiens, UniProt P24557); assay: biochemical; assay type: tissue-based, Platelet; conditions: platelet;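 further: enzyme inhibition assay with PGH2 supplied as substrate; in other assays of this panel Not Active means under 50% inhibition at 10 µM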
T4 sequence (P24557 whole entry): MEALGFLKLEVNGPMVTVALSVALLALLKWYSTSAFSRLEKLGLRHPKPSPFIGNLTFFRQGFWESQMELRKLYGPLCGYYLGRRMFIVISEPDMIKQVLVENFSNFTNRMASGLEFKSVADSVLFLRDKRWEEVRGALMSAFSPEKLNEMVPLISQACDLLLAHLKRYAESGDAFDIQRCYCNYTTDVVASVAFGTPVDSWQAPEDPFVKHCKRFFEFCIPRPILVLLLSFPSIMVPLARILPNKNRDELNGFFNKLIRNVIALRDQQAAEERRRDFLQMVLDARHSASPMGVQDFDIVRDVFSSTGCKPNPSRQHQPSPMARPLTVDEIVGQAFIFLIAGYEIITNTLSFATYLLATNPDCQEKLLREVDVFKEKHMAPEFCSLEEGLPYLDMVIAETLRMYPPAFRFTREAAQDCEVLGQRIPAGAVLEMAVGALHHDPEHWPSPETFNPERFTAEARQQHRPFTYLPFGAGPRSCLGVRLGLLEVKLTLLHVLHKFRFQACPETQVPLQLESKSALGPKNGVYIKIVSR

[5] = molecular target: Mitogen-activated protein kinase 14 (Homo sapiens, UniProt Q16539); design: species or system Escherichia coli
Chain of Mitogen-activated protein kinase 14 (Q16539 whole entry): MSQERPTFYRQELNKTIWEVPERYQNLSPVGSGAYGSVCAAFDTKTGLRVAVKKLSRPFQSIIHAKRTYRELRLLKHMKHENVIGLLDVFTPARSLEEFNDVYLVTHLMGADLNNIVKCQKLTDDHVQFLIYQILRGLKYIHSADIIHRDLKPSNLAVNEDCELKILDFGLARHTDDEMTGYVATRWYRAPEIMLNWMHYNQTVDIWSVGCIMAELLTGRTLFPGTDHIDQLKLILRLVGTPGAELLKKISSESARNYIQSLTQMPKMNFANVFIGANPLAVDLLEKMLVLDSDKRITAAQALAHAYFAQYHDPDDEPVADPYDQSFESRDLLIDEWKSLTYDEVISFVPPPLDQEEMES

Chain of Mitogen-activated protein kinase 3 (P27361 whole entry): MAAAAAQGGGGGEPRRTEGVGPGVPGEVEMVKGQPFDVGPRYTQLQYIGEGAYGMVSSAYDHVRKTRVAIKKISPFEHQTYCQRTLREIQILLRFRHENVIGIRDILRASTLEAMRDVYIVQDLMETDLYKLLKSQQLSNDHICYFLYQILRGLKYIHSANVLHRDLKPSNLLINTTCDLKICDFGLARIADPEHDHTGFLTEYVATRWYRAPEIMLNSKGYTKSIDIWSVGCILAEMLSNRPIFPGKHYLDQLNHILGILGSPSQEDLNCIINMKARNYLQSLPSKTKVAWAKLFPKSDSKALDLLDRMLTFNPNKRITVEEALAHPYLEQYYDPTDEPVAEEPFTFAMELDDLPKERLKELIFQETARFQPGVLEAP
Chain of Beta-3 adrenergic receptor (P13945 whole entry): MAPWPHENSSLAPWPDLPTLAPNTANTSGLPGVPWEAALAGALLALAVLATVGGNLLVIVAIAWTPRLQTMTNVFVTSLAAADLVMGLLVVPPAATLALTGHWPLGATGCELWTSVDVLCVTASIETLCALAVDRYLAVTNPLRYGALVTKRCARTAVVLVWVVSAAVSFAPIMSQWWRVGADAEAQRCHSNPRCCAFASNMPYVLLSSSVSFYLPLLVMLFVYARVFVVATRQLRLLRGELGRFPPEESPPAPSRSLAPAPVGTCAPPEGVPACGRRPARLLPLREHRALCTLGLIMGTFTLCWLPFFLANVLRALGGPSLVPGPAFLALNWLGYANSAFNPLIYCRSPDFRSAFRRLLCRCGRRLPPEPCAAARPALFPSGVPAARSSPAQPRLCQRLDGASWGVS
Chain of Beta-1 adrenergic receptor (P08588 whole entry): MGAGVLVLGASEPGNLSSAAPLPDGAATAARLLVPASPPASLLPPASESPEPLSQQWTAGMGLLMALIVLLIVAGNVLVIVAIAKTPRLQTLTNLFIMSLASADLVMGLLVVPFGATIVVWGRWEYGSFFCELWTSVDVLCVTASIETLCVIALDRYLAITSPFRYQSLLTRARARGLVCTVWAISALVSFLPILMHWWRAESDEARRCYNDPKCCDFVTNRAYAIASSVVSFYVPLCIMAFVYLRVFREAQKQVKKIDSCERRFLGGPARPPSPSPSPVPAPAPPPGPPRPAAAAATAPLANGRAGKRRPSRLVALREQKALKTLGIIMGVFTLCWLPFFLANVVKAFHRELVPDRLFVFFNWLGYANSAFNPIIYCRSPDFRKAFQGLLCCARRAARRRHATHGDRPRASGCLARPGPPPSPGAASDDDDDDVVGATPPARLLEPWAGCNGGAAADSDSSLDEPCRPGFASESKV
Chain of Cannabinoid receptor 1 (P21554 whole entry): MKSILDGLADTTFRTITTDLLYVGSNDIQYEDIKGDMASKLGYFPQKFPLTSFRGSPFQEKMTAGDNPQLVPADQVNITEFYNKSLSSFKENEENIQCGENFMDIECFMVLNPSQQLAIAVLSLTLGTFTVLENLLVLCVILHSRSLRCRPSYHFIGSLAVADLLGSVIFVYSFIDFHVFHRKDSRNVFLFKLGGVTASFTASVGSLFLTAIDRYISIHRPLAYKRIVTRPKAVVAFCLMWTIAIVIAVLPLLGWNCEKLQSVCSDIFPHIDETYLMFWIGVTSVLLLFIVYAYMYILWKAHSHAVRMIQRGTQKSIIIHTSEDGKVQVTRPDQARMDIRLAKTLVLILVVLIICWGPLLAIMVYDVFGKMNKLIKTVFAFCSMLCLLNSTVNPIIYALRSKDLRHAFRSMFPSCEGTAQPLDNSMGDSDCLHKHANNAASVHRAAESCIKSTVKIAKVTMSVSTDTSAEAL

| SMILES | IC50 ([1]; cho-k1) | IC50 (Cytochrome P450 2A6) | Ki (Cytochrome P450 2A6) | IC50 [2] | IC50 [3] | IC50 (Cannabinoid receptor 1) | IC50 (Progesterone receptor) | IC50 [4] | IC50 (Thromboxane-A synthase) | IC50 [5] | IC50 ([1]; read-out: IC50) | Ki ([1]; read-out: Ki) |
| --- | --- | --- | --- | --- | --- | --- | --- | --- | --- | --- | --- | --- |
| [Cl-].[Cl-].[Zn+2] [ZINC CHLORIDE] | Not Active | Not Active | Not Active | Not Active | Not Active | Not Active | Not Active | Not Active | Not Active | Not Active |  |  |
| O=C(c1ccc(OCCN2CCCCC2)cc1)c1c(-c2ccc(O)cc2)sc2cc(O)ccc12 [RALOXIFENE] | Not Active | Not Active | Not Active | Not Active | Not Active | Not Active | Not Active | Not Active | Not Active | Not Active |  |  |
| CN1C(C(=O)Nc2ccccn2)=C(O)c2sccc2S1(=O)=O [TENOXICAM] | Not Active | Not Active | Not Active | Not Active | Not Active | Not Active | Not Active | Not Active | Not Active | Not Active |  |  |
| CC(=O)N[C@@H]1[C@H](Oc2c3cc4cc2Oc2ccc(cc2Cl)[C@@H](O[C@@H]2O[C@@H](CO)[C@@H](O)[C@H](O)[C@@H]2NC(C)=O)[C@@H]2NC(=O)[C@H](NC(=O)[C@@H]4NC(=O)[C@H]4NC(=O)[C@@H](Cc5ccc(c(Cl)c5)O3)NC(=O)[C@H](N)c3ccc(O)c(c3)Oc3cc(O)cc4c3)c3ccc(O)c(c3)-c3c(O[C@H]4O[C@H](CO)[C@@H](O)[C@@H](O)[C@@H]4O)cc(O)cc3[C@@H](C(=O)O)NC2=O)O[C@@H](CO)[C@@H](O)[C@@H]1O | Not Active | Not Active | Not Active | Not Active | Not Active | Not Active | Not Active | Not Active | Not Active | Not Active |  |  |
| COCCCOc1ccnc(C[S+]([O-])c2nc3ccccc3[nH]2)c1C (stereo unspecified) [RABEPRAZOLE] | Not Active | Not Active | Not Active | Not Active | Not Active | Not Active | Not Active | Not Active | Not Active | Not Active |  |  |
| CO[C@H]1/C=C/O[C@@]2(C)Oc3c(C)c(O)c4c(c3C2=O)C2=NC3(CCN(CC(C)C)CC3)NC2=C(NC(=O)/C(C)=C\C=C\[C@H](C)[C@H](O)[C@@H](C)[C@@H](O)[C@@H](C)[C@H](OC(C)=O)[C@@H]1C)C4=O [RIFABUTIN] | Not Active | Not Active | Not Active | Not Active | Not Active | Not Active | Not Active | Not Active | Not Active | Not Active |  |  |
| CNC(=C[N+](=O)[O-])NCCSCc1ccc(CN(C)C)o1 [RANITIDINE] | Not Active | Not Active | Not Active | Not Active | Not Active | Not Active | Not Active | Not Active | Not Active | Not Active |  |  |
| CC1=C(CC(=O)O)c2cc(F)ccc2/C1=C\c1ccc([S+](C)[O-])cc1 (stereo unspecified) | Not Active | Not Active | Not Active | Not Active | Not Active | Not Active | Not Active | Not Active | Not Active | Not Active |  |  |
| CC(=O)CC(c1ccccc1)c1c(O)c2ccccc2oc1=O (stereo unspecified) [WARFARIN] | Not Active | Not Active | Not Active | Not Active | Not Active | Not Active | Not Active | Not Active | Not Active | Not Active |  |  |
| CC(C)(C)c1ccc(C(O)CCCN2CCC(C(O)(c3ccccc3)c3ccccc3)CC2)cc1 (stereo unspecified) [TERFENADINE] | Not Active | Not Active | Not Active | Not Active | Not Active | Not Active | Not Active | Not Active | Not Active | Not Active |  |  |
| C[C@@H](N)[C@H]1CC[C@H](C(=O)Nc2ccncc2)CC1 [Y-27632] | Not Active | Not Active | Not Active | Not Active | Not Active | Not Active | Not Active | Not Active | Not Active | Not Active |  |  |
| CN1CCC(=C2c3ccccc3C=Cc3ccccc32)CC1 [CYPROHEPTADINE] |  | Not Active | Not Active | Not Active | Not Active | Not Active | Not Active | Not Active | Not Active | Not Active | 3.83 nM | 2.75 nM |
| COc1cc2c(c(OC)c1OC)-c1ccc(OC)c(=O)cc1[C@@H](NC(C)=O)CC2 [COLCHICINE] | Not Active | Not Active | Not Active | Not Active | Not Active | Not Active | Not Active | Not Active | Not Active | Not Active |  |  |

From ChEMBL document CHEMBL1909046, “DrugMatrix in vitro pharmacology data”
